Source: patent publication US20050197364A1, “Amide compounds as ion channel ligands and uses thereof” (priority 2003, published 2005)

Target: CYP2C19 (Homo sapiens, UniProt P33261)
Assay: Cytochrome p450 inhibition assessment, CYP2C19
Format: in vitro ADME
Conditions: estimated
Procedure: The ability of test compounds to inhibit five major human cytochrome p450 isozymes was evaluated. Cytochrome p450 inhibition assays were performed on 96-well microtiter assay plates according to the protocols described in Gentest P450 inhibition instruction manuals. The assays were performed in duplicate at 8 concentrations with the upper concentration of 100 μM followed by a 1:3 serial dilution. Reactions were initiated by the addition of 100 μL of enzyme/substrate mix to 100 μL of cofactor/serial dilution mix, and terminated by addition of 75 μL of a 4:1 acentonitrile: 0.5 M Tris base solution or by 2N NaOH for CYP3A4/DBF. Fluorescence was measured using a fluorescence plate reader (FLUOstar model 403, BMG Lab Technologies, Durham, N.C.). For reactions with inhibition greater than 50%, IC50 values were determined by fitting the data to the Hill equation using software GraphPad Prism (Version 4.02, GraphPad Software, San Diego, Calif.).

Chain of CYP2C19 (P33261 whole entry): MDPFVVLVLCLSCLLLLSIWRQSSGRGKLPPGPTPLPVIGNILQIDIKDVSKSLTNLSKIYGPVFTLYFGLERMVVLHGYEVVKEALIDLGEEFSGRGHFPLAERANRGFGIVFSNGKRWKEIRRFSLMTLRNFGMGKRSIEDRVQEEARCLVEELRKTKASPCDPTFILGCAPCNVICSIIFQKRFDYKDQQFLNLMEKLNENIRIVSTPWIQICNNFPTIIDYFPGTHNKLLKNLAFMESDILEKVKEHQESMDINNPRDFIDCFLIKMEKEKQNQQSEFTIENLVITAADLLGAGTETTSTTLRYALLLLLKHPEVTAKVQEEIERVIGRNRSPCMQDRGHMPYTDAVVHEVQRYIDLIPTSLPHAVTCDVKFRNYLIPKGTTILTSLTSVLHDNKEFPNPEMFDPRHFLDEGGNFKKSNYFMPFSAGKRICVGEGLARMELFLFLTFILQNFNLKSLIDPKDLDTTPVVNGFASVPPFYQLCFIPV

IC50: 26.9 µM
SMILES: O=C(Nc1ccc(C(F)(F)F)cc1)c1ccc(-c2ncccc2Cl)cc1 [Compound 18, 4-(3-Chloropyridin-2-yl)-N-(4-trifluoromethyl-phenyl)benzamide]
